The values that follow come from patent publication US11458138B2 (Novartis AG, priority 2017, dated 2022).

Bounds are passed on as bounds.

The subject of assay [1] is human limbal stem cells (LSCs). Kind of assay: Human limbal stem cell population expansion: expansion factor. The following applies: 10 micromolar, XVIVO15 medium, two passages, ratio of expanded to seeded cells. Type of assay: cell-based. The protocol: (§1) Cells were cultured at 37° C. in 5% CO2.
For each compound, two sets of cultures were generated. A first set of cultures was fixed in 4% PFA for 20 minutes at room temperature after cells isolated from the cornea had attached to the cell culture dish (typically 24 h after cell plating). A second set of cultures was fixed in 4% PFA for 20 minutes at room temperature after being cultured for two passages. Cells were passaged when they reached 90-100% confluence.
To evaluate cell expansion ratios, nuclei were counted using a Zeiss LSM 880 confocal microscope. The expansion factor was then determined by calculating the ratio of the expanded population of cells to population of seeded cells.

Assay [2] concerns Phospho-YAP (Ser127) in JHH-5 cells. Kind of assay: pYAP HTRF Assay (JHH-5 cells). Type of assay: cell-based. The following applies: 2 hours. In short, it runs like this:
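JHH-5 cells (24000/well) cultured 24 h at 37 °C in William's E with 10% FBS, then exposed to compounds for 2 h at 37 °C. After lysis, pYAP d2/cryptate antibodies incubated 18 h at room temperature; HTRF ratio 665/620 nm ×10000.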

Assay [3] relates to human corneal endothelial cells (CECs). In words: Human corneal endothelial cell population expansion: fold cell expansion. It counts as cell-based. The following applies: 10 micromolar compound, X-VIVO15 medium, 10 days, ratio of expanded to seeded cells. The protocol: as §1
(§2) For each compound, two sets of cultures were generated. A first set of cultures was fixed in 4% PFA for 20 minutes at room temperature after cells isolated from the cornea had attached to the cell culture dish (typically 24 h after cell plating). A second set of cultures was fixed in 4% PFA for 20 minutes at room temperature 10 days after the first one.
(§3) To measure cell density in all fixed cultures, the number of nuclei stained with Sytox Orange (ThermoFisher) were counted per surface area as follows: fixed cell cultures fixed were permeabilized in a solution of 0.3% Triton X-100 (Sigma-Aldrich). Cells were then labeled in a solution of 0.5 micromolar of Sytox Orange in PBS for 5 minutes at room temperature. Nuclei were counted under a Zeiss epifluorescence microscope. The expansion factor was then determined by calculating the ratio of the expanded population of cells to population of seeded cells.

The subject of assay [4] is YAP nuclear translocation in HaCaT cells. Kind of assay: YAP Translocation Assay (HaCaT Cells). It counts as cell-based, human. The following applies: Homo sapiens, 24 hours. In outline:
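HaCaT cells (20,000/well) in DMEM + 10% FBS were plated overnight at 37° C, then exposed to compound for 24 h at 37° C. Cells were fixed with PFA, permeabilized with 0.1% Triton/1.5% BSA and imaged by high-content imaging.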

In assay [5] the test system is human corneal endothelial cells (CECs). Kind of assay: Human corneal endothelial cell population expansion: endothelial cell density in vitro. Type of assay: cell-based. The following applies: 10 micromolar compound, X-VIVO15 medium, 10 days. The protocol:
as §1, §2, §3

For assay [6], the target named is Human LATS2 kinase domain protein (Homo sapiens (Human), UniProt Q9NRM7). Kind of assay: LATS2 Biochemical Caliper Assay (Compound Examples 1-290). The following applies: 400 micromolar ATP. In outline:
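LATS2 catalytic domain (aa 553-1088), co-purified with His-tagged MOBKL1A, reacted with compound for 3 h at 25° C before EDTA (25 mM) stop. Substrate and product separated by microfluidic electrophoresis (Caliper LabChip 3000) and quantified by fluorescence intensity.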

Assay [7] deals with Phospho-YAP (SER127) in HaCaT cells. In words: pYAP HTRF Assay (HaCaT Cells). It counts as cell-based, human. The following applies: Homo sapiens, 2 hours. In short, it runs like this: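 HaCaT cells at 5500 cells/well were cultured 48 hours at 37° C, then treated with compound for 2 hours. Phospho-YAP (Ser127) was detected by HTRF after an overnight (20 hrs) room-temperature incubation, read as the 665 nm/620 nm ratio.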

Assay [8] deals with LATS1 (Homo sapiens (Human), UniProt O95835). Kind of assay: LATS1 biochemical assay (Table 1A, Compound Examples 1-290; method in the earlier part).
LATS1, sequence (O95835 whole entry, looked up): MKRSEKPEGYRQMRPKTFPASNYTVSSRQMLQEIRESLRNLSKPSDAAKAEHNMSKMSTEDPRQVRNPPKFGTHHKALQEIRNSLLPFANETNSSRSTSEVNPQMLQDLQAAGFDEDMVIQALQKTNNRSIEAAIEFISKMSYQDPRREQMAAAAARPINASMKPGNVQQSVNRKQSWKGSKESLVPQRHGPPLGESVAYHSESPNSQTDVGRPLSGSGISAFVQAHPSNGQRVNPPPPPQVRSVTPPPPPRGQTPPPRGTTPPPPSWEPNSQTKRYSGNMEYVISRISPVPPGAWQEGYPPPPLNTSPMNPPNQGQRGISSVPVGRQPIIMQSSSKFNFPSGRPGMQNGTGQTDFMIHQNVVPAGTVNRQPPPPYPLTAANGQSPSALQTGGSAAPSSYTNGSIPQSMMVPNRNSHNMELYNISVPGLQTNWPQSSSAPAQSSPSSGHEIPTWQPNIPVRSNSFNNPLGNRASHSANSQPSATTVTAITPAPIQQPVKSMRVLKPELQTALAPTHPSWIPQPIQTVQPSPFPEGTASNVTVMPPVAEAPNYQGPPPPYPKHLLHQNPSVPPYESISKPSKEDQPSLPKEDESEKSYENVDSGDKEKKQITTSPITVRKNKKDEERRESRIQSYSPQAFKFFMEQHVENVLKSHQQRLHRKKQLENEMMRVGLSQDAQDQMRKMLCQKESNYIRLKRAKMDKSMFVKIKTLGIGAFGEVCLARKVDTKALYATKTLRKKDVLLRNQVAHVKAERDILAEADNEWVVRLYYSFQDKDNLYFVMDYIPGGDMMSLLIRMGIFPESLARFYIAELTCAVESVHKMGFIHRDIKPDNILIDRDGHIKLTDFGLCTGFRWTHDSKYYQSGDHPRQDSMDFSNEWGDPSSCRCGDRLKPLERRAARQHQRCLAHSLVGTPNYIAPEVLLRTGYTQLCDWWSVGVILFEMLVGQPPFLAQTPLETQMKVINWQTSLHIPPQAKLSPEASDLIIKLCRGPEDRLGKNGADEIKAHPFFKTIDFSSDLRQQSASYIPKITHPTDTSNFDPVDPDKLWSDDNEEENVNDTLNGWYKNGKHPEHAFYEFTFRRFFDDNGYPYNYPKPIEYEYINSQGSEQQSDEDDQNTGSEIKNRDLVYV
LATS1, sequence (Q7L9L4 whole entry partner, looked up): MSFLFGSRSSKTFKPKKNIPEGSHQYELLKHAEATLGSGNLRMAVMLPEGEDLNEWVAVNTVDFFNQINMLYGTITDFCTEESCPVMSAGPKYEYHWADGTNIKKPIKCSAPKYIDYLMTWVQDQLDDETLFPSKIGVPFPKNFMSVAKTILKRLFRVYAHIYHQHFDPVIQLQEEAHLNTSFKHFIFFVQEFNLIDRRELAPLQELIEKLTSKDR

Human LATS2 kinase domain protein, sequence (Q9NRM7 553-1088): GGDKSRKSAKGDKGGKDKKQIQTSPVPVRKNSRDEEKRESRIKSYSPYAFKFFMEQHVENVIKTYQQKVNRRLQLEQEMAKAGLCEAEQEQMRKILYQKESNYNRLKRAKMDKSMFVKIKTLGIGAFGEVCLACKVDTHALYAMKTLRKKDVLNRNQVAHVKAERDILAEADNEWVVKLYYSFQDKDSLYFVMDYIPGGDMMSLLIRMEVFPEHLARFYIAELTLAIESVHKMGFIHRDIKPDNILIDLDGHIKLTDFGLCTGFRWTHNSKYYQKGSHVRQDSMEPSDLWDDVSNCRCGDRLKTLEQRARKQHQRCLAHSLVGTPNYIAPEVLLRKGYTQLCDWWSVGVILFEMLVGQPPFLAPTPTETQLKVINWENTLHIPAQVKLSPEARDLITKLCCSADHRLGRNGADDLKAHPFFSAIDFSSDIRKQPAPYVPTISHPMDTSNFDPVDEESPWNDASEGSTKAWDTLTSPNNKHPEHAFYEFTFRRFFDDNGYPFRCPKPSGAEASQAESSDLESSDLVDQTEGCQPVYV
Human LATS2 kinase domain protein, sequence (Q7L9L4 whole entry partner, the tested form may be a part): as the sequence (Q7L9L4 whole entry partner, looked up) above

Regarding `CC(C)(O)CC(C)(C)Nc1nc(-c2ccncc2)nc2cnccc12` [Example 49, 2,4-dimethyl-4-{[2-(pyridin-4-yl)pyrido[3,4-d]pyrimidin-4-yl]amino}pentan-2-ol], the Expansion factor in assay [1] was 2029. Further, the IC50 (commonly the concentration needed to halve the response being measured) in assay [2] came to 1600 nM; in assay [6] it was 21 nM; in assay [7], 607 nM; in assay [8], 1 nM. Besides, the “Expansion factor (Fold Cell expansion)” value in assay [3] is reported as 426. In addition, in assay [4], the response was half-maximal at 1170 nM (EC50). Moreover, the “Endothelial Cell density in vitro” value in assay [5] was 3873 cells/mm^2.
`CCCNc1nc(-c2ccncc2)nc2cnccc12` [Example 14, N-propyl-2-(pyridin-4-yl)pyrido[3,4-d]pyrimidin-4-amine]: in assay [1], the Expansion factor amounted to 1423. Moreover, the IC50 in assay [2] is above 10000 nM; in assay [6], 50 nM; in assay [7], 7310 nM; in assay [8], 2 nM. For the same compound, the “Expansion factor (Fold Cell expansion)” value in assay [3] came out at 337. Besides, the EC50 (in general, the concentration giving half of the maximal effect) in assay [4] stood at 4250 nM. The “Endothelial Cell density in vitro” value in assay [5] was 3271 cells/mm^2.
In the case of `c1cc(-c2nc(NC3CCCC3)c3ccncc3n2)ccn1` [Example 65, N-cyclopentyl-2-(pyridin-4-yl)pyrido[3,4-d]pyrimidin-4-amine], in assay [1], the Expansion factor amounted to 1048. Further, the IC50 in assay [2] was determined as 5800 nM; in assay [6], 30 nM; in assay [7], 895 nM; in assay [8] it was 2 nM. Also, the “Expansion factor (Fold Cell expansion)” value in assay [3] is reported as 203. In addition, in assay [4], a half-maximal effect (EC50) was put at 1990 nM. The “Endothelial Cell density in vitro” value in assay [5] amounted to 1702 cells/mm^2.
In the case of `Cc1n[nH]cc1-c1nc(NC2(C)CC2)c2ccncc2n1` [Example 133, 2-(3-methyl-1H-pyrazol-4-yl)-N-(1-methylcyclopropyl)pyrido[3,4-d]pyrimidin-4-amine], the Expansion factor in assay [1] was 1205. Moreover, the IC50 in assay [2] was found to be 1700 nM; in assay [6], 4 nM; in assay [7], 414 nM; in assay [8], 2 nM. Further, the “Expansion factor (Fold Cell expansion)” value in assay [3] is on record as 273. For the same compound, in assay [4], the EC50 was 1670 nM. Further, the “Endothelial Cell density in vitro” value in assay [5] is 2028 cells/mm^2.
Consider `CC(C)(C)Nc1cc(-c2ccncc2)nc2cnccc12` [Example 261, N-(tert-butyl)-2-(pyridin-4-yl)-1,7-naphthyridin-4-amine], for which the Expansion factor in assay [1] was 1717. Also, the IC50 is 600 nM in assay [2], 4 nM in assay [6], 202 nM in assay [7] and 1 nM in assay [8]. For the same compound, the “Expansion factor (Fold Cell expansion)” value in assay [3] was determined as 461. The same compound yielded an EC50 in assay [4] of 1220 nM. Further, the “Endothelial Cell density in vitro” value in assay [5] is listed as 4308 cells/mm^2.
